How the values were obtained:
Assay in all cases: relative viability (nuclei count vs DMSO), 5 days (fraction); higher = more cells survive
[1] = compound: CC1=CC(=CC=C1)NC2=NC(=CS2)C3=CC=NC=C3 + COc1cccc2cc(-c3nc([C@H]4CC[C@H](C(=O)O)CC4)n4ncnc(N)c34)[nH]c12 [OSI-027] (partner 0.5 µM)
In short: (§1)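 Five library-drug doses in √10 steps were combined with a fixed anchor-drug dose, or a single drug was given alone, by pin tool to lung cancer cell lines in 1536-well plates the day after seeding. Nuclei were stained and counted after 5 days. Relative viability is the nuclei count in treated wells over that in vehicle wells, taken as the median of duplicate plates.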

Masitinib + OSI-027 = compound: Cc1ccc(NC(=O)c2ccc(CN3CCN(C)CC3)cc2)cc1Nc1nc(-c2cccnc2)cs1 [Masitinib] + COc1cccc2cc(-c3nc([C@H]4CC[C@H](C(=O)O)CC4)n4ncnc(N)c34)[nH]c12 [OSI-027] (partner 0.5 µM)
In short: as §1

[2] = compound: CC1=CC(=CC=C1)NC2=NC(=CS2)C3=CC=NC=C3 + C[C@@H](Oc1cc(-c2cnn(C3CCNCC3)c2)cnc1N)c1c(Cl)ccc(F)c1Cl [Crizotinib] (partner 1 µM)
In short: as §1

[3] = compound: CC1=CC(=CC=C1)NC2=NC(=CS2)C3=CC=NC=C3 + Nc1ncn([C@H]2C[C@H](O)[C@@H](CO)O2)c(=O)n1 [Decitabine] (partner 2 µM)
In short: as §1

Row | Cell Line | relative viability ([1]; first compound 0.08 µM) | relative viability ([1]; first compound 0.253 µM) | relative viability ([1]; first compound 0.8 µM) | relative viability ([1]; first compound 2.53 µM) | relative viability ([1]; first compound 8 µM) | relative viability (Masitinib + OSI-027; first compound 0.01 µM) | relative viability (Masitinib + OSI-027; first compound 0.03162 µM) | relative viability (Masitinib + OSI-027; first compound 0.1 µM) | relative viability (Masitinib + OSI-027; first compound 0.3162 µM) | relative viability (Masitinib + OSI-027; first compound 1 µM) | relative viability ([2]; first compound 0.08 µM) | relative viability ([2]; first compound 0.253 µM) | relative viability ([2]; first compound 0.8 µM) | relative viability ([2]; first compound 2.53 µM) | relative viability ([2]; first compound 8 µM) | relative viability ([3]; first compound 0.08 µM) | relative viability ([3]; first compound 0.253 µM) | relative viability ([3]; first compound 0.8 µM) | relative viability ([3]; first compound 2.53 µM) | relative viability ([3]; first compound 8 µM)
1 | NCI-H1993 | 0.523 | 0.524 | 0.586 | 0.576 | 0.56 | 0.533 | 0.533 | 0.489 | 0.541 | 0.514 | 0.847 | 0.706 | 0.853 | 0.91 | 0.946 | 0.565 | 0.561 | 0.483 | 0.485 | 0.502
2 | CAL-12T | 0.45 | 0.546 | 0.542 | 0.469 | 0.528 | 0.682 | 0.554 | 0.705 | 0.404 | 0.536 | 0.547 | 0.634 | 0.612 | 0.62 | 0.604 |  |  |  |  | 
3 | NCI-H1623 | 0.444 | 0.359 | 0.391 | 0.405 | 0.384 | 0.373 | 0.507 | 0.447 | 0.318 | 0.367 |  |  |  |  |  |  |  |  |  | 
4 | HCC-44 | 0.321 | 0.374 | 0.558 | 0.432 | 0.348 | 0.526 | 0.497 | 0.531 | 0.392 | 0.59 | 0.704 | 0.585 | 0.651 | 0.722 | 0.691 | 0.88 | 0.788 | 0.834 | 0.767 | 0.826
5 | EKVX | 0.538 | 0.699 | 0.619 | 0.628 | 0.636 |  | 0.533 | 0.566 | 0.673 | 0.599 | 0.907 | 0.893 | 0.795 | 0.801 | 0.497 | 0.289 | 0.397 |  | 0.356 | 0.316
6 | NCI-H1666 | 0.582 | 0.598 | 0.676 | 0.501 | 0.507 |  | 0.861 | 0.921 | 0.792 | 0.833 | 0.722 | 0.567 | 0.526 | 0.567 | 0.386 | 0.682 | 0.691 | 0.67 | 0.472 | 0.636
7 | NCI-H2170 | 0.733 | 0.646 | 0.583 | 0.537 | 0.651 | 0.701 | 0.75 | 0.791 | 0.606 | 0.726 | 1.11 | 1.13 | 1.09 | 1.09 | 1.05 | 0.426 | 0.399 | 0.437 | 0.43 | 0.361
8 | NCI-H1734 | 0.481 | 0.554 | 0.654 | 0.7 | 0.618 | 0.668 | 0.625 | 0.599 | 0.568 | 0.544 | 0.665 | 0.667 | 0.635 | 0.653 | 0.622 | 0.446 | 0.417 | 0.457 | 0.507 | 0.463
9 | Calu-6 |  |  |  |  |  |  |  |  |  |  | 0.698 | 0.639 | 0.619 | 0.634 | 0.727 |  |  |  |  | 
10 | EBC-1 |  |  |  |  |  |  |  |  |  |  | 0.176 | 0.218 | 0.198 | 0.17 | 0.163 |  |  |  |  | 
11 | A-427 | 0.378 | 0.522 | 0.523 | 0.397 | 0.48 |  | 0.509 |  | 0.531 | 0.456 | 0.851 | 0.944 | 0.751 |  | 0.692 | 0.558 | 0.544 | 0.547 | 0.548 | 0.546
12 | NCI-H2405 | 0.564 | 0.636 | 0.531 | 0.702 | 0.671 | 0.62 | 0.63 | 0.633 | 0.609 | 0.659 | 0.684 | 0.774 | 0.615 | 0.874 | 0.808 | 0.694 | 0.678 | 0.686 |  | 0.671
13 | NCI-H1437 | 1.04 | 1.02 | 1.08 | 1.04 | 0.714 | 0.768 | 0.936 | 0.899 | 0.879 | 0.858 | 0.938 | 1.03 | 0.91 | 1.06 | 0.926 | 0.593 | 0.521 | 0.742 | 0.384 | 0.48
14 | SK-MES-1 | 0.517 | 0.484 | 0.549 | 0.714 | 0.511 | 0.615 | 0.668 | 0.684 | 0.52 | 0.651 | 0.79 | 0.781 | 0.815 | 0.842 | 0.853 | 0.37 | 0.361 | 0.367 | 0.373 | 0.378
15 | RERF-LC-KJ | 0.512 | 0.572 | 0.569 | 0.415 | 0.37 | 0.629 | 0.517 | 0.583 | 0.418 | 0.412 | 0.741 | 0.705 | 0.556 | 0.59 | 0.512 | 0.675 | 0.64 | 0.62 | 0.522 | 0.387
16 | NCI-H23 | 0.48 | 0.485 | 0.654 | 0.526 | 0.555 | 0.49 | 0.572 | 0.617 | 0.575 | 0.559 | 0.417 | 0.469 | 0.474 | 0.531 | 0.526 | 0.327 | 0.274 | 0.32 | 0.299 | 0.32
17 | HOP-62 | 0.714 | 0.774 | 0.849 | 0.786 | 0.729 | 0.759 | 0.866 | 0.923 | 0.929 | 0.837 | 0.935 | 0.788 | 0.944 | 0.503 | 0.93 | 0.219 | 0.218 | 0.261 | 0.244 | 0.247
18 | HARA | 0.33 | 0.496 | 0.328 | 0.48 | 0.473 |  | 0.44 | 0.521 | 0.384 | 0.315 | 0.804 | 1 | 0.994 | 0.998 | 0.986 | 0.508 | 0.438 | 0.539 | 0.48 | 0.664
19 | PC-14 | 0.712 | 0.833 | 0.795 | 0.826 | 0.702 | 0.887 | 0.794 | 0.822 | 0.875 | 0.826 | 0.87 | 0.881 | 0.821 | 0.951 | 0.695 | 0.174 | 0.186 | 0.187 | 0.177 | 0.217
